Results published in patent publication US11958871B2, “Inhibitors of bacterial glutaminyl cyclases for use in the treatment of periodontal and related diseases” (FRAUNHOFER-GESELLSCHAFT ZUR FÖRDERUNG DER ANGEWANDTEN …, priority 2018, dated 2024).
Where two headings read alike, the source gives them in different places.

What was measured:
Assay type in all cases: biochemical
[1] = test system: bacterial glutaminyl cyclases; assay: Inhibition of bacterial glutaminyl cyclases, summary statements
Description: (§1) For inhibitor testing, the sample composition was the same as described above, except for the addition of the putative inhibitory compound. […] Inhibitory constants were determined using different concentration of H-Gln-AMC varying from ¼ Km-2 Km. Final concentration of bacterial QC was in a range between 25 nM-50 nM.
(§2) The following compounds were synthesized as described in the Description of synthetic methods below. Average Ki values for the inhibition of PgQC (isolated and purified as described above), TfQC, PiQC and hQC were measured using the above inhibitor assay and are shown in. Ki refers to the average Ki values measured as described above, and Std(Ki) refers to the standard deviation of Ki.

PgQC = PgQC (Porphyromonas gingivalis, UniProt Q7MT37); assay: Inhibitor assay for bacterial glutaminyl cyclase activity (fluorometric, H-Gln-AMC), PgQC
Sequence of PgQC (Q7MT37 22-333 limits assumed): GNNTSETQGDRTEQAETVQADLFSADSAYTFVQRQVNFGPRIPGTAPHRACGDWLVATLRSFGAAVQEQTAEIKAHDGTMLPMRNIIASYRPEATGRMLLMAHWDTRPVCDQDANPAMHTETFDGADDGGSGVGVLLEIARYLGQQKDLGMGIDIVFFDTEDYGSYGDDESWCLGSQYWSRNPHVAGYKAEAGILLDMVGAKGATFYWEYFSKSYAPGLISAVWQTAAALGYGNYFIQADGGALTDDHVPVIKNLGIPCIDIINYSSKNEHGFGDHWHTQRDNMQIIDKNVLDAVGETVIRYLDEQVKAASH
Description: (§3) QC activity was evaluated using H-Gln-AMC as the substrate (as previously described in Schilling et al., 2002).
(§4) The assay consists of varying concentration of the fluorogenic substrate and 0.5 U pyroglutaminyl aminopeptidase in 50 mM Tris-HCl, 50 mM NaCl at pH 8.0. After 10 minute incubation time at 30° C. reaction was initiated by addition of bacQC to a final volume of 125 μl reaction mixture. The excitation/emission wavelength was 380/460 nm. bacQC activity was determined from a standard curve of the fluorophore AMC under assay conditions. All determinations were carried out in 96 well microtiter plates (Fisher Scientific) at 30° C. using the FluoStar Optima (BMG Labtech).
as §1
(∘) represents reaction without inhibitor. Determinations were carried out in 50 mM Tris-HCl, 50 mM NaCl pH 8.0 and 1% (v/v) DMSO at 30° C.
as §2

hQC = hQC (Homo sapiens (Human), UniProt Q16769); assay: Inhibitor assay for glutaminyl cyclase activity (fluorometric, H-Gln-AMC), hQC
Sequence of hQC (Q16769 29-361): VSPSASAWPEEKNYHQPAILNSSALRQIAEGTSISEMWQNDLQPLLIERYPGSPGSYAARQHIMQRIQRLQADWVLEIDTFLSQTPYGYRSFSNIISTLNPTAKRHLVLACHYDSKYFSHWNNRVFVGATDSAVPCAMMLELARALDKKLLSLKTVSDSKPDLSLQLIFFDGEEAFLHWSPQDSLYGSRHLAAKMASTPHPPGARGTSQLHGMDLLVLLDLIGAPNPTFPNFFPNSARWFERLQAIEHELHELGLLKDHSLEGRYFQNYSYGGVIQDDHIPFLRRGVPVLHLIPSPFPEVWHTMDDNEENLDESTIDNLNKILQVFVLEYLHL
Description: as §3, §4, §1, §2

TfQC = TfQC (Tannerella forsythia, UniProt G8UMP8); assay: Inhibitor assay for bacterial glutaminyl cyclase activity (fluorometric, H-Gln-AMC), TfQC
Sequence of TfQC (G8UMP8 20-333 limits assumed): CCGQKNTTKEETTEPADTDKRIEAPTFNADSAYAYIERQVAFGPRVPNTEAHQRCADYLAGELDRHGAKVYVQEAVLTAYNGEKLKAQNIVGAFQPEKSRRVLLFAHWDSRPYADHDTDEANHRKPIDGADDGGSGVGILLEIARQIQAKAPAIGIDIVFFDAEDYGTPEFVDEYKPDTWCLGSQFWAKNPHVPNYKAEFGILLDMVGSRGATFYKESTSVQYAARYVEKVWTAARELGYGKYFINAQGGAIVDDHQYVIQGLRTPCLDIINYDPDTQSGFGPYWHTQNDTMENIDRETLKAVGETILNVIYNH
Description: as §3, §4, §1, §2

[2] = average Ki ± Std(Ki), read-out: PgQC Ki
[3] = average Ki ± Std(Ki), read-out: hQC Ki
[4] = average Ki ± Std(Ki), read-out: TfQC Ki

| Compound | Ki (PgQC; [2]) [nM] | other results |
| --- | --- | --- |
| c1ccc(CNc2ccc3nc[nH]c3n2)cc1 [Example 1, N-Benzylimidazo[4,5-b]pyridin-5-amine] | 1940 ± 318 | inhibitory activity against bacterial glutaminyl cyclases (in words) [1]: significant bacQC inhibitory activity and selectivity for PgQC over hQC; Ki (PgQC; read-out: Ki, PgQC (Table 5)): 1950 nM; Ki (hQC; [3]): 8800 ± 127 nM; Ki (hQC; read-out: Ki, hQC (Table 5)): 8800 nM; Ki (TfQC; [4]): 8260 ± 361 nM; Ki (TfQC; read-out: Ki, TfQC (Table 5)): 8300 nM |
| N=C(N)NCCOc1ccc(CNc2cnc3[nH]cnc3c2)cc1 [Example 17, 1-(2-(4-((Imidazo[4,5-b]pyridin-6-ylamino)methyl)-phenoxy)ethyl)guanidine] | 14 ± 0.1 | Ki (hQC; [3]): 455 ± 14 nM; Ki (TfQC; [4]): 123 ± 16 nM |
| CC(C)Oc1ccc(CNc2cnc3[nH]cnc3c2)cc1 [Example 18, N-[(4-Isopropoxyphenyl)methyl]-3H-imidazo[4,5-b]pyridin-6-amine] | 86 ± 5 | – |
| c1ccc(Oc2cccc(CNc3cnc4[nH]cnc4c3)c2)cc1 [Example 19, N-[(3-Phenoxyphenyl)methyl]-3H-imidazo[4,5-b]pyridin-6-amine] | 15 ± 0.1 | – |
| c1ccc(COc2ccc(CNc3cnc4[nH]cnc4c3)cc2)cc1 [Example 20, N-[(4-Benzyloxyphenyl)methyl]-3H-imidazo[4,5-b]pyridin-6-amine] | 42 ± 4 | – |
| c1ccc(-c2ccc(CNc3cnc4[nH]cnc4c3)cc2)cc1 [Example 21, N-[(4-Biphenyl)methyl]-3H-imidazo[4,5-b]pyridin-6-amine] | 19 ± 1 | – |
| COc1cc(F)c(CNc2cnc3[nH]cnc3c2)c(F)c1 [Example 22, N-[(2,6-Difluoro-4-methoxy-phenyl)methyl]-3H-imidazo[4,5-b]pyridin-6-amine] | 30 ± 1 | – |
| COc1cc(CNc2cnc3[nH]cnc3c2)cc2c1OCO2 [Example 23, N-[(7-Methoxy-1,3-benzodioxol-5-yl)methyl]-3H-imidazo-[4,5-b]pyridin-6-amine] | 65 ± 13 | – |
| FC1(F)Oc2ccc(CNc3cnc4[nH]cnc4c3)cc2O1 [Example 24, N-[(2,2-Difluoro-1,3-benzodioxol-5-yl)methyl]-3H-imidazo-[4,5-b]pyridin-6-amine] | 67 ± 1 | – |
| c1ccc(-c2ccc(CNc3cnc4[nH]cnc4c3)cc2)nc1 [Example 25, N-[[4-(2-Pyridyl)phenyl]methyl]-3H-imidazo[4,5-b]pyridin-6-amine] | 38 ± 3 | – |
| c1nc2cc(NCc3ccc(OCCN4CCOCC4)cc3)cnc2[nH]1 [Example 26, N-[[4-(2-Morpholinoethoxy)phenyl]methyl]-3H-imidazo[4,5-b]pyridin-6-amine] | 33 ± 1 | – |
| c1nc2cc(NCc3ccc(N4CCOCC4)cc3)cnc2[nH]1 [Example 27, N-[(4-morpholinophenyl)methyl]-3H-imidazo[4,5-b]pyridin-6-amine] | 60 ± 2 | – |
| O=C(c1cc(Cl)cc(Cl)c1)N1CCc2[nH]cnc2C1 [MWT-S-00431, (3,5-dichlorophenyl-1,4,6,7-tetrahydro-5H-imidazo[4,5-c]pyridin-5-yl)methanone, reference compound] | – | Ki (PgQC; 50 mM Tris-HCl, 50 mM NaCl pH 8.0, 1% (v/v) DMSO, 30° C., read-out: Ki, inhibition of the conversion of H-Gln-AMC by PgQC): 104 nM |
